Measurements reported in patent US8258176B2, “Dithiolopyrrolone compounds, the preparation and the use thereof” (Shanghai Institute of Pharmaceutical Industry, priority 2007, dated 2012).
Like-named read-outs stand apart in the source and are kept apart here.

B1: G-CSF: granulocyte colony-stimulating factor, SAIGELI, Shanghai Sunway Biotech Co., Ltd.; positive control (protein, UniProt P09919 31-207, looked up)
Granulocyte …: TPLGPASSLPQSFLLKCLEQVRKIQGDGAALQEKLVSECATYKLCHPEELVLLGHSLGIPWAPLSSCPSQALQLAGCLSQLHSGLFLYQGLLQALEGISPELGPTLDTLQLDVADFATTIWQQMEELGMAPALQPTQGAMPAFASAFQRRAGGVLVASHLQSFLEVSYRVLRHLAQP

Legend:
[1] = system: peripheral blood leukocytes of model mice; settings: for NE % (percentage of neutrophils in the total number of white blood cells) / WBC count: CTX model mice
Protocol: Sample: series of dithiolopyrrolone compounds were dissolved in 0.5% CMC—Na to be suspension after grinding with Tween (less than 4% usage).
Cyclophosphamide for Injection (CTX), Shanghai Hualian Pharmaceutical Co., Ltd., batch number: 050606, prepared of being dissolved in saline.
SAIGELI (G-CSF), Shanghai Sunway Biotech Co., Ltd., batch number: 051001
Animal blood analyzer, model: HEMAVET950 • 2. Method
40 BALB/c mice, were randomly divided into five groups, blank control group, positive control (G-CSF) group (22.5 ug/kg), and two dithiolopyrrolone derivatives groups (compounds 001 and 004, 20 mg/kg), CTX model group (100 mg/kg), respectively with 8 mice in each group. rThe blank control group wasn't treated in any way, the other four groups were treated with CTX intraperitoneal injection, 100 mg/kg, once a day. […] G-CSF group was given G-CSF (22.5 ug/kg) subcutaneously once a day, one day after the completing of the injection of CTX. Dithiolopyrrolone derivatives groups were administered with dithiolopyrrolone derivatives (20 mg/kg), through gavaging once a day (0.5 ml), one day after the completing of the injection of CTX. The mice of model group and blank control group were administered with an equivalent 0.5% CMC—Na solution through gavaging.
Blood specimens were collected according to conventional method via the mice orbital vein, on the 0, 4, 6, 8 day respectively, when the day of administering CTX is set as the first day, then the peripheral blood routine test was carried out, and the effect of series of dithiolopyrrolone compounds on peripheral blood leukocytes of normal mice was analyzed. • 3. Results

[2] = system: bone marrow granulocyte series; test: Bone marrow smear microscopic examination of CTX model mice; assay type: in vivo, BALB/c mice; settings: bone marrow smear after treatment
[3] = system: peripheral blood leukocytes of normal mice; test: Effects on peripheral blood leukocytes of normal mice (peripheral blood routine test); assay type: in vivo; settings: G-CSF 22.5 ug/kg sc once a day
Text: Animal hematology analyzer, model: HEMAVET950 • 2. Method
The mice were divided into blank control group, positive control group and the dithiolopyrrolone series of compounds group, there are 10 mice in each group.

[4] = day 0 (before CTX 100 mg/kg ip x 3 days)
[5] = day 4, CTX 100 mg/kg ip days 1-3, compounds 20 mg/kg ig, G-CSF 22.5 ug/kg sc once a day from one day after CTX
[6] = day 6, CTX 100 mg/kg ip days 1-3, compounds 20 mg/kg ig, G-CSF 22.5 ug/kg sc once a day from one day after CTX
[7] = day 8, CTX 100 mg/kg ip days 1-3, compounds 20 mg/kg ig, G-CSF 22.5 ug/kg sc once a day from one day after CTX
[8] = day 0 (before administration), compounds 20 mg/kg ig once a day
[9] = day 3, compounds 20 mg/kg ig once a day
[10] = day 5, compounds 20 mg/kg ig once a day

Row | Molecule | total number of white blood cells and percentage of neutrophils after CTX ([1]; CTX 100 mg/kg ip once a day, after three days of administration) | NE % (percentage of neutrophils in the total number of white blood cells) [1, 4] [%] | WBC count [1, 4] [L⁻¹] | NE % (percentage of neutrophils in the total number of white blood cells) [1, 5] [%] | WBC count [1, 5] [L⁻¹] | NE % (percentage of neutrophils in the total number of white blood cells) [1, 6] [%] | WBC count [1, 6] [L⁻¹] | NE % (percentage of neutrophils in the total number of white blood cells) [1, 7] [%] | WBC count [1, 7] [L⁻¹] | granulocyte series in bone marrow smear (microscopic examination) [2] | NE % (percentage of neutrophils in the total number of white blood cells) [3, 8] [%] | WBC count [3, 8] [L⁻¹] | NE % (percentage of neutrophils in the total number of white blood cells) [3, 9] [%] | WBC count [3, 9] [L⁻¹] | NE % (percentage of neutrophils in the total number of white blood cells) [3, 10] [%] | WBC count [3, 10] [L⁻¹]
1 | O=P1(N(CCCl)CCCl)NCCCO1 (stereo not shown) [CTX, Cyclophosphamide, reference compound] | significantly decreased | 28.46 | 5.88e+09 | 3.33 | 1.34e+09 | 6.7 | 1.2e+09 | 38.32 | 5.7e+09 | severely inhibited |  |  |  |  |  | 
2 | COc1ccc(-n2c3cssc-3c(NC(=O)Oc3ccccc3)c2=O)c(OC)c1 [compound 001] |  | 27.32 | 5.98e+09 | 2.48 | 1.21e+09 | 42.71 | 2.75e+09 | 76.84 | 1.844e+10 | significant hyperplasia and speeding up of the differentiation and maturation | 33.73 | 7.89e+09 | 67.44 | 1.824e+10 | 72.13 | 2.496e+10
3 | CCOC(=O)Nc1c2sscc-2n(-c2ccc(OC)cc2OC)c1=O [compound 004] |  | 18.65 | 5.86e+09 | 4.34 | 1.11e+09 | 36.47 | 1.42e+09 | 87.62 | 1.528e+10 | significant hyperplasia and speeding up of the differentiation and maturation | 31.56 | 7.65e+09 | 56.36 | 1.336e+10 | 78.24 | 1.866e+10
4 | B1 |  | 30.34 | 5.92e+09 | 4.58 | 1.14e+09 | 30.07 | 1.84e+09 | 59.68 | 1.54e+10 | significant hyperplasia and speeding up of the differentiation and maturation | 25.39 | 6.74e+09 | 57.86 | 1.748e+10 | 60.68 | 1.922e+10
